Test results taken from US8871900B2, “Fibroblast growth factor (FGF) analogs and uses thereof” (University of Rochester, priority 2008, dated 2014).
Peptide text beside a SMILES is read from it.

Tests used:
[1] = system: mice exposed to sub-TBI (GI syndrome); assay: Survival after sub-TBI (GI syndrome / AGS model); type: in vivo, mouse (Balb/c, C57BL/6, C3H/HeN)
Source text: A sub-TBI (total body irradiation) model was created, in which one leg of mouse is shielded from the direct radiation field. With this system, 8.5 Gy can be delivered to Balb/c mice without BM deaths (defined as deaths that occur between 10 and 30 days). When sub-TBI dose was increased to 9 Gy, half the irradiated mice die, and at 10.5 Gy, 66-100% mice died within 5-7 days. Pathologically these mice have devastating gut damage. In our GI (sub-TBI) model, the LD50/7 for Balb/c mice (6-8 week old from NCI) was 8.9-9.1 Gy. Using this GI model, the mitigation effect of FGF-P on the GI syndrome was tested. FGF-P (2 mg/kg) was given im 5-10 minutes after IR and continued once a day for 3-5 consecutive days. Each animal experiment had its own vehicle mock treatment group as control.
When the sub-TBI dose is raised to 10.5 or 11 Gy, 100% of the untreated control mice died of GI syndrome, while 33-67% of mice treated with FGF-P survived 3.5 months, FIGS. 2B and 2C). When the IR dose was raised to 12 Gy, all control animals died and 17% of FGF-P treated mice survived (FIG. 2D). […] Additionally, many of the animals that do die, do so later than mice not treated with FGF-P.
Native FGF-2 has a mouse strain dependent response profile. Most strains enjoy a benefit, but responses in C57 mice have been unimpressive. To determine if the agent works in mice with different genomic backgrounds, FGF-P (2 mg/kg) was given to C57BL/6 mice 10 min after the mice were exposed to 16 Gy sub-TBI. […] A third strain of mouse, C3H/HeN (LD50/7 about 12 Gy), was also studied. At 12.5 Gy sub-TBI, 33% of control mice survived while 50% of mice treated with FGF-P survived. At 13.5 Gy, all the control mice died within 7 days, while 50% of FGF-P treated mice survived (FIG. 3B). Thus unlike native FGF the bioavailability or bioeffect of FGF-P seems to be strain independent.

[2] = Plasma GI endocrine and exocrine markers after sub-TBI; type: in vivo, mouse (Balb/c); conditions: 10.5 Gy sub-TBI, 3.5 days
Source text: The gastrointestinal tract facilitates nutritional absorption and digestion through endocrine organs and exocrine function. Measurements of these functions in Balb/c mice with AGS, with and without FGF-P treatment have been made. Regarding endocrine function, critical proteins produced by epithelial cells lining the small intestine and/or the pancreas are: 1) secretin, which stimulates secretion of a bicarbonate-rich fluid from the pancreas and liver; and 2) insulin, produced by pancreatic β cells, which controls the level of blood glucose. Regarding exocrine function, a major digestive protein, amylase was measured. Amylase is secreted by epithelial cells along the GI tract, including the pancreas.
For secretin, the amino acid sequence in mice is ([…], SEQ ID NO: 4), which has a one amino acid change (M vs. T) at position 5. The kit for human secretin (Peninsula Laboratories, cat #S-1229) has been tested and it recognizes the mouse form. A mouse insulin kit is available (Linco Inc. Cat #EZRMI-13 K). The EnzChek Ultr Amylase Assay kit (Molecular Probes, Cat #E33651.3) can be used for all species, since it measures for the enzymatic product. Blood glucose level can be measured with a commercial kit from Sigma (Cat #GAG0-20 and GAHK-20) and is based on enzymatic activity, which is also universal to all species. Using these kits, the alterations in the plasma concentrations of the GI-derived proteins and peptides in mice that had been exposed to 10.5 Gy sub-TBI and, thereafter, received vehicle alone or FGF-P ([…] im) for 3 doses (10 min, 1 day, and 2 days post-IR) were measured. The samples were collected 3.5 days after irradiation.

[3] = Toxicity of FGF-P (LD50/14 experiments); type: in vivo, mouse (Balb/c)
Procedure: Standard LD50/14 experiments have been performed. Up to 400 mg/kg of FGF-P was injected into Balb/c mice. No obvious signs of illness were observed. […] Thus, even the maximum NOAEL (no observed adverse effect level) could not be found. […] This observation is not surprising since similar observations have been made previously with human FGF-2 in mice (9-14) Likewise, it has been shown that in various disease states the level of FGF in humans is commonly 100 times the normal baseline.
A useful mitigator can be effective even given 8-24 hours IR exposure because of the time required for distribution. Therefore, FGF-P given at 8 hour after 7.1 Gy IR was tested.

human FGFR1 = human FGFR1 (Homo sapiens, UniProt P11362); assay: Biacore binding assay
[4] = system: GI Na transport from mucosa to serosa; assay: Electrolyte transport assay with 22Na flux (Ussing chamber); parameters: species or system mouse; conditions: after IR
Procedure: FGF-P improves GI function: The absorption of Na coupling with nutrition and blocking of pathogen invasion are the basic function of GI. […] To pin down the mechanism in cell/tissue level, the electrolyte transport assay with ^22Na flux was carried with Ussing chamber. […] Similarly, a “Dilution Potential” experiment was carried out and Goldman-Hodgkin-Katz (GHK) Voltage Equation used to determine relative paracellular permeability.

[5] = FGF-P (2 mg/ml im) 3 doses, P<0.05

human FGFR1, sequence (P11362 22-822): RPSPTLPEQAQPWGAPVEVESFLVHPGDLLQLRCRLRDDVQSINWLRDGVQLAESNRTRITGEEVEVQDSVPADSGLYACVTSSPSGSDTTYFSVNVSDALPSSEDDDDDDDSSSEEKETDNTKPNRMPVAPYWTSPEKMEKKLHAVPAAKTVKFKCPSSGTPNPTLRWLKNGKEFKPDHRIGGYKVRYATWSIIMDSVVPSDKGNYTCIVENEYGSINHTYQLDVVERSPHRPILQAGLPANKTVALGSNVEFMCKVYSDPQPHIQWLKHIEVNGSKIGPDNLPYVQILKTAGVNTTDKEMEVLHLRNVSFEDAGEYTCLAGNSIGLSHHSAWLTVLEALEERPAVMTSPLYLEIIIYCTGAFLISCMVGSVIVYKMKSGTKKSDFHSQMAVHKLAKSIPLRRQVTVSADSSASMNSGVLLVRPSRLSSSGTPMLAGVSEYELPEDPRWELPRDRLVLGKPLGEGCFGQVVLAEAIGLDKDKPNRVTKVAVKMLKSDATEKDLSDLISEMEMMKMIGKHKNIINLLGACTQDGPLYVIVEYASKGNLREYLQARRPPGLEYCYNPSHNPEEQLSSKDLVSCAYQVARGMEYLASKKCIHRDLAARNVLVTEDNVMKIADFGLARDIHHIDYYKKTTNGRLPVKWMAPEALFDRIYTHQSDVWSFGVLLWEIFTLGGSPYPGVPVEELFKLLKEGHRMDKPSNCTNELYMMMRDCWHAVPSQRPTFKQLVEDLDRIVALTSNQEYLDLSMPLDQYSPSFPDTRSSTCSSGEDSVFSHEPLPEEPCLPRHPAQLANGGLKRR

## CC(C)C[C@H](NC(=O)[C@H](C)NC(=O)[C@@H](NC(=O)[C@H](Cc1ccc(O)cc1)NC(=O)[C@H](Cc1c[nH]c2ccccc12)NC(=O)[C@H](CO)NC(=O)[C@H](CO)NC(=O)[C@H](Cc1ccc(O)cc1)NC(=O)[C@H](CCCCN)NC(=O)[C@H](CCCNC(=N)N)NC(=O)[C@H](CO)NC(=O)[C@H](CCCNC(=N)N)NC(=O)[C@H](Cc1ccc(O)cc1)NC(=O)[C@@H](N)CS)C(C)C)C(=O)N[C@@H](CCCCN)C(=O)N[C@@H](CCCNC(=N)N)C(=O)N[C@@H](CS)C(=O)O [FGF-P, CYRSRKYSSWYVALKRC] (H-CYRSRKYSSWYVALKRC-OH; N-terminus and C-terminus assumed)
[1]; Balb/c, 10 Gy sub-TBI, at 4 months, FGF-P 2 mg/kg im 5-10 min after IR, daily 3-5 days
  mice still alive: 87%
[1]; Balb/c, 10.5 or 11 Gy sub-TBI, 3.5 months, FGF-P 2 mg/kg im
  mice survived: 33-67%
[1]; Balb/c, 12 Gy sub-TBI, FGF-P 2 mg/kg im
  mice survived: 17%
[1]; C3H/HeN, 12.5 Gy sub-TBI
  mice survived: 50%
[1]; C3H/HeN, 13.5 Gy sub-TBI
  mice survived: 50%
[1]; C57BL/6, 16 Gy sub-TBI, at 1.5 months, FGF-P 2 mg/kg 10 min after IR
  mice still alive: 33%
[1]; C57BL/6, 16 Gy sub-TBI, over 2.5 months
  long-term survival: 33%
[2]; [5]
  plasma amylase level: restored it to normal levels
  plasma insulin levels: restored to near normal
  plasma level of secretin: reversed this effect
[2]; FGF-P (im) 3 doses
  blood glucose: better preserved
[3]; Balb/c mice, up to 400 mg/kg
  body weight: body weight did not decrease
[3]; mice
  dose tolerated well without any signs of sickness: up to 4 gram/kg
[3]; mouse, in vivo, Balb/c mice, LD50/14 experiments, read-out: injected dose with no obvious signs of illness (maximum NOAEL could not be found)
  NOAEL at 14 days: ≤ 400 mg/kg
Human FGFR1
  binding to human FGFR1: binding of FGF-P to human FGFR1
[4]
  Na transport from mucosa to serosa: reversed
